Assay [1] relates to NUGC-4. The assay is described as follows: Cytotoxicity against KK-LC-1-positive human NUGC-4 cells incubated for 72 hrs by CCK-8 assay. Type of assay: functional, cell-based. The note with it: NUGC-4, 72 h. A general note: Formazan colour is commonly taken as a measure of viable cells.
Assay [2] relates to MKN-45. The assay is described as follows: Cytotoxicity against KK-LC-1-positive human MKN-45 cells incubated for 72 hrs by CCK-8 assay. Type of assay: functional, cell-based. The note with it: MKN-45, 72 h.
A further assay relates to HGC-27. The assay is described as follows: Cytotoxicity against KK-LC-1-negative human HGC-27 cells incubated for 72 hrs by CCK-8 assay. Type of assay: functional, cell-based. The following applies: HGC-27, 72 h.
Assay [3] deals with NUGC-4. The assay is described as follows: Induction of mitotic arrest in KK-LC-1-positive human NUGC-4 cells xenografted in nude mouse assessed as number of pHH3-positive nuclei in tumor at 4 nmol, iv administered as single dose and measured after 24 hrs by pHH3 immunohistochemical staining method relative to control. The format is functional.
Assay [4] relates to MKN-45. The assay is described as follows: Antitumor activity against KK-LC-1-positive human MKN-45 cells xenografted in male BALB/c nude mouse assessed as reduction in tumor growth. The format is functional.
The test system of assay [5] is MKN-45. The assay is described as follows: Antitumor activity against KK-LC-1-positive human MKN-45 cells xenografted in male BALB/c nude mouse assessed as tumor volume. Type of assay: functional. On the technique in general: Xenograft models place foreign cells or tissue in a host animal.

Active and inactive are the calls of the source. No cut-off for these calls is given here. Where a SMILES comes first, the peptide text is derived from it. [ ]: non-standard residue; d: D form. The star is where a group is joined. Dolaproine = CO[C@@H]([C@@H]1CCCN1)[C@@H](C)C(=O)O; Dil = CC[C@H](C)[C@H](NC)[C@@H](CC(=O)O)OC; X1 = C[C@@H](N*)[C@@H](O)c1ccccc1; NMeV = CN[C@H](C(=O)O)C(C)C

The results in this text go back to ChEMBL document CHEMBL5108004, “An auristatin-based peptide-drug conjugate targeting Kita-Kyushu lung cancer antigen 1 for precision chemoradiotherapy in gastric cancer” (Eur J Med Chem, 2022).

The IC50 is the point on the concentration scale where inhibition reaches its midpoint. Turning to `CC[C@H](C)[C@@H]([C@@H](CC(=O)N1CCC[C@H]1[C@H](OC)[C@@H](C)C(=O)N[C@H](C)[C@@H](O)c1ccccc1)OC)N(C)C(=O)[C@@H](NC(=O)[C@@H](NC)C(C)C)C(C)C` (H-[NMeV]V[Dil][Dolaproine]-X1), the half-inhibitory concentration (IC50) with NUGC-4 [1] was 11 nM; with MKN-45 [2], 10.7 nM; in the assay with HGC-27, 7.18 nM. The figures for the Activity in the assay on NUGC-4 [3] and in the assay on MKN-45 [5] were 28.75 and 602.1 mm3, respectively. The result in the assay with MKN-45 [4] was Active.
